Patent publication US20230139171A1 (SITA Information Networking Computing UK Limited, priority 2019, published 2023)

How the values were obtained:
[1] = target: T1, human TLR7 (Homo sapiens, UniProt Q9NYK1); assay: TLR7 inhibition reporter assay (HEK-Blue cells, SEAP reporter, gardiquimod stimulation); assay type: cell-based; settings: HEK-Blue cells overexpressing human TLR7, SEAP reporter, gardiquimod 7.5 μM; read-out: TLR7 IC50
T1 construct: host or cells: HEK-Blue cells
T1 sequence (Q9NYK1 27-1049): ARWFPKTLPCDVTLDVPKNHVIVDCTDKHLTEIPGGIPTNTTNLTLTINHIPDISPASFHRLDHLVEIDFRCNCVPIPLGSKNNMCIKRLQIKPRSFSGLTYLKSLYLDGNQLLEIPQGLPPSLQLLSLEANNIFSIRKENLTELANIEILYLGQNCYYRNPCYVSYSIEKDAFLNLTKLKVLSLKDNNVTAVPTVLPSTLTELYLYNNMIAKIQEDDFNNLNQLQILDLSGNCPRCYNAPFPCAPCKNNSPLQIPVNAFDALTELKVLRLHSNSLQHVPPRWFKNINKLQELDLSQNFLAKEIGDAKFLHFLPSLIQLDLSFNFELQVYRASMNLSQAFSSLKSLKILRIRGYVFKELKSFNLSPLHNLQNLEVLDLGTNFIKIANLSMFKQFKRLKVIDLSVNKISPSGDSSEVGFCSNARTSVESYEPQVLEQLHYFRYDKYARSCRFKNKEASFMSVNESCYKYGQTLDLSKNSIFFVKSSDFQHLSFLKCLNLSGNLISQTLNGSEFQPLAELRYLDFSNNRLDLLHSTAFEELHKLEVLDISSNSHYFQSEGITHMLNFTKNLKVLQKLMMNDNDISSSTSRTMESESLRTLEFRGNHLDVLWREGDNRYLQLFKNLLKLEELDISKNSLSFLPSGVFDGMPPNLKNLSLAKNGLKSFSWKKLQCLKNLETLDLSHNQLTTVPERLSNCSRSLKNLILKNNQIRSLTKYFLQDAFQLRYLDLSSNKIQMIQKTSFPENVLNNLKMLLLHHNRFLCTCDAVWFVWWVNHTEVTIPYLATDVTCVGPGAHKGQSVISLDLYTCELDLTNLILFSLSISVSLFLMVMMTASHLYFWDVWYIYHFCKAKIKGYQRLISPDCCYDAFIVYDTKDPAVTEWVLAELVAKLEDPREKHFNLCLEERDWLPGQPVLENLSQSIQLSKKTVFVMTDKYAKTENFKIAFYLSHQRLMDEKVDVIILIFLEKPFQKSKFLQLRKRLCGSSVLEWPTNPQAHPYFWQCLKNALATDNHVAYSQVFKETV
Method: (§1) TLR7/8/9 Inhibition Reporter Assays
(§2) HEK-Blue™-cells (Invivogen) overexpressing human TLR7, TLR8 or TLR9 receptors were used for screening inhibitors of these receptors using an inducible SEAP (secreted embryonic alkaline phosphatase) reporter gene under the control of the IFN-β minimal promoter fused to five NF-κB and AP-1-binding sites. Briefly, cells are seeded into Greiner 384 well plates (15000 cells per well for TLR7, 20,000 for TLR8 and 25,000 for TLR9) and then treated with test compounds in DMSO to yield a final dose response concentration range of 0.05 nM-50 μM. After a 30 minute compound pre-treatment at room temperature, the cells are then stimulated with a TLR7 ligand (gardiquimod at a final concentration of 7.5 μM), TLR8 ligand (R848 at a final concentration of 15.9 μM) or TLR9 ligand (ODN2006 at a final concentration of 5 nM) to activate NF-κB and AP-1 which induce the production of SEAP. After a 22 hour incubation at 37° C., 5% CO2, SEAP levels are determined with the addition of HEK-Blue™ Detection reagent (Invivogen), a cell culture medium that allows for detection of SEAP, according to manufacturer's specifications. The percent inhibition is determined as the % reduction in the HEK-Blue signal present in wells treated with agonist plus DMSO alone compared to wells treated with a known inhibitor.

[2] = target: T2, human TLR8 (Homo sapiens, UniProt Q9NR97); assay: TLR8 inhibition reporter assay (HEK-Blue cells, SEAP reporter, R848 stimulation); assay type: cell-based; settings: HEK-Blue cells overexpressing human TLR8, SEAP reporter, R848 15.9 μM; read-out: TLR8 IC50
T2 construct: host or cells: HEK-Blue cells
T2 sequence (Q9NR97 27-1041): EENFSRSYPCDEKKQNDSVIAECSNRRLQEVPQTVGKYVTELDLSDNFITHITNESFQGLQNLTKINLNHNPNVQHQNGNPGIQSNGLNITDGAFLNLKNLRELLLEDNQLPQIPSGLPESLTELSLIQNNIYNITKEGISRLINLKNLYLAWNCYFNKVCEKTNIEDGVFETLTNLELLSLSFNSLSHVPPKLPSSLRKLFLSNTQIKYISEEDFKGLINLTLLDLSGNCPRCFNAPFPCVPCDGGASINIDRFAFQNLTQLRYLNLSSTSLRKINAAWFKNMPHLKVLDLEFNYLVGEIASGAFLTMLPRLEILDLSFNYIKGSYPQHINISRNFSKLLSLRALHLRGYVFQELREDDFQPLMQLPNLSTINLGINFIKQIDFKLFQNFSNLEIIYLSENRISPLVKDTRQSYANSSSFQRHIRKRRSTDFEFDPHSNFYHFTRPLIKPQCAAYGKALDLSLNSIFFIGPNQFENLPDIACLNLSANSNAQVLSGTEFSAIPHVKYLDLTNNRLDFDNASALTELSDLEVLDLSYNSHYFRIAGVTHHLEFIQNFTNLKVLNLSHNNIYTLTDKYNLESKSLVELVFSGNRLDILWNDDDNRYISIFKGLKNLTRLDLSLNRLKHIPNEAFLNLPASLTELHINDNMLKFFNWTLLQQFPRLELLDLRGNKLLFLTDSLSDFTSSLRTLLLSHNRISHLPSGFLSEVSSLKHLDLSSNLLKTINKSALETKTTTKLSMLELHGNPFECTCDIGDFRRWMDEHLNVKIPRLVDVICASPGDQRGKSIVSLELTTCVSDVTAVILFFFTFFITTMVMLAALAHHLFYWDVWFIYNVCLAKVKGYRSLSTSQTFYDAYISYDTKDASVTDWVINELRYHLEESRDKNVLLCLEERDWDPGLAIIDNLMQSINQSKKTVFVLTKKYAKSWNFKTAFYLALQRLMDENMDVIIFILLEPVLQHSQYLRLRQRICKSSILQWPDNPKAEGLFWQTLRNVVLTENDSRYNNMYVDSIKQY
Method: as §1, §2

| SMILES | IC50 [1] | IC50 [2] |
| --- | --- | --- |
| CC(C)c1c(-c2cn(C)c3ncccc23)[nH]c2sc(C3CCN(CC(N)=O)CC3)nc12 [Example 31, 2-(4-(6-isopropyl-5-(1-methyl-1H-pyrrolo[2,3-b]pyridin-3-yl)-4H-pyrrolo[3,2-d]thiazol-2-yl)piperidin-1-yl) acetamide] | 3.98 nM | 3.02 nM |
| CC(C)c1c(-c2cn(C)c3ncccc23)[nH]c2sc(C3CCN(C(=O)CN(C)C)CC3)nc12 [Example 32, 2-(dimethylamino)-1-(4-(6-isopropyl-5-(1-methyl-1H-pyrrolo[2,3-b]pyridin-3-yl)-4H-pyrrolo[3,2-d]thiazol-2-yl)piperidin-1-yl)ethan-1-one] | 3.41 nM | 15.9 nM |
| CC(C)c1c(-c2cn(C)c3ncccc23)[nH]c2sc(C3CCN(CCS(C)(=O)=O)CC3)nc12 [Example 33, 6-isopropyl-5-(1-methyl-1H-pyrrolo[2,3-b]pyridin-3-yl)-2-(1-(2-(methylsulfonyl)ethyl)piperidin-4-yl)-4H-pyrrolo[3,2-d]thiazole] | 3.86 nM | 1.52 nM |
| CC(C)c1c(-c2cn(C)c3ncccc23)[nH]c2sc(C3CCN(C4COC4)CC3)nc12 [Example 34, 6-isopropyl-5-(1-methyl-1H-pyrrolo[2,3-b]pyridin-3-yl)-2-(1-(oxetan-3-yl)piperidin-4-yl)-4H-pyrrolo[3,2-d]thiazole] | 4.44 nM | 4.94 nM |
| Cc1c(-c2[nH]c3sc(C4CCN(C5COC5)CC4)nc3c2C(C)C)cn2ncnc2c1C [Example 43, 5-(7,8-dimethyl-[1,2,4]triazolo[1,5-a]pyridin-6-yl)-6-isopropyl-2-(1-(oxetan-3-yl)piperidin-4-yl)-4H-pyrrolo[3,2-d]thiazole] | 2.54 nM | 5.22 nM |
| Cc1c(-c2[nH]c3sc(C4CCN(CCS(C)(=O)=O)CC4)nc3c2C(C)C)cn2ncnc2c1C [Example 55, 5-(7,8-dimethyl-[1,2,4]triazolo[1,5-a]pyridin-6-yl)-6-isopropyl-2-(1-(2-(methylsulfonyl)ethyl)piperidin-4-yl)-4H-pyrrolo[3,2-d]thiazole] | 2.99 nM | 1.15 nM |
| CNC(=O)CN1CCC(c2nc3c(C(C)C)c(-c4cn5ncnc5c(C)c4C)[nH]c3s2)CC1 [Example 56, 2-(4-(5-(7,8-dimethyl-[1,2,4]triazolo[1,5-a]pyridin-6-yl)-6-isopropyl-4H-pyrrolo[3,2-d]thiazol-2-yl)piperidin-1-yl)-N-methylacetamide] | 4.36 nM | 3.43 nM |
| CC(=O)N1CCC(c2nc3c(C(C)C)c(-c4cn5ncnc5c(C)c4C)[nH]c3s2)CC1 [Example 59, 1-(4-(5-(7,8-dimethyl-[1,2,4]triazolo[1,5-a]pyridin-6-yl)-6-isopropyl-4H-pyrrolo[3,2-d]thiazol-2-yl)piperidin-1-yl)ethan-1-one] | 5.83 nM | 47.2 nM |
| Cc1c(-c2[nH]c3sc(C4CCN(C5COC5)CC4)nc3c2C(C)C)cn(C)c(=O)c1C [Example 60, 5-(6-isopropyl-2-(1-(oxetan-3-yl)piperidin-4-yl)-4H-pyrrolo[3,2-d]thiazol-5-yl)-1,3,4-trimethylpyridin-2(1H)-one] | 36.6 nM | 27.9 nM |
| Cc1c(-c2[nH]c3sc(C4CCN(CCS(C)(=O)=O)CC4)nc3c2C(C)C)cn(C)c(=O)c1C [Example 61, 5-(6-isopropyl-2-(1-(2-(methylsulfonyl)ethyl)piperidin-4-yl)-4H-pyrrolo[3,2-d]thiazol-5-yl)-1,3,4-trimethylpyridin-2(1H)-one] | 22.7 nM | 5.33 nM |
| Cc1c(-c2[nH]c3sc(C4CCN(CC(=O)N(C)C)CC4)nc3c2C(C)C)cn(C)c(=O)c1C [Example 62, 2-(4-(6-isopropyl-5-(1,4,5-trimethyl-6-oxo-1,6-dihydropyridin-3-yl)-4H-pyrrolo[3,2-d]thiazol-2-yl)piperidin-1-yl)-N,N-dimethylacetamide] | 88.6 nM | 22.3 nM |
| CNC(=O)CN1CCC(c2nc3c(C(C)C)c(-c4cn(C)c(=O)c(C)c4C)[nH]c3s2)CC1 [Example 63, 2-(4-(6-isopropyl-5-(1,4,5-trimethyl-6-oxo-1,6-dihydropyridin-3-yl)-4H-pyrrolo[3,2-d]thiazol-2-yl)piperidin-1-yl)-N-methylacetamide] | 24.8 nM | 14.6 nM |
| Cc1c(-c2[nH]c3sc(C4CCN(CC(N)=O)CC4)nc3c2C(C)C)cn(C)c(=O)c1C [Example 64, 2-(4-(6-isopropyl-5-(1,4,5-trimethyl-6-oxo-1,6-dihydropyridin-3-yl)-4H-pyrrolo[3,2-d]thiazol-2-yl)piperidin-1-yl)acetamide] | 32.7 nM | 10.4 nM |
| Cc1c(-c2[nH]c3sc(N4CCN(CCS(C)(=O)=O)CC4)nc3c2C(C)C)cn2ncnc2c1C [Example 282, 5-(7,8-dimethyl-[1,2,4]triazolo[1,5-a]pyridin-6-yl)-6-isopropyl-2-(4-(2-(methylsulfonyl)ethyl)piperazin-1-yl)-4H-pyrrolo[3,2-d]thiazole] | 29.8 nM | 5.33 nM |
| Cc1c(-c2[nH]c3sc(N4CCN(CC(=O)N(C)C)CC4)nc3c2C(C)C)cn2ncnc2c1C [Example 283, 2-(4-(5-(7,8-dimethyl-[1,2,4]triazolo[1,5-a]pyridin-6-yl)-6-isopropyl-4H-pyrrolo[3,2-d]thiazol-2-yl)piperazin-1-yl)-N,N-dimethylacetamide] | 18.8 nM | 1.7 nM |
| CNC(=O)CN1CCN(c2nc3c(C(C)C)c(-c4cn5ncnc5c(C)c4C)[nH]c3s2)CC1 [Example 284, 2-(4-(5-(7,8-dimethyl-[1,2,4]triazolo[1,5-a]pyridin-6-yl)-6-isopropyl-4H-pyrrolo[3,2-d]thiazol-2-yl)piperazin-1-yl)-N-methylacetamide] | 9.6 nM | 5.12 nM |
| Cc1cc(-c2[nH]c3sc(N4CCN(CC(C)(C)O)C[C@H]4C)nc3c2C(C)C)cn2ncnc12 [Example 359, (R)-1-(4-(6-isopropyl-5-(8-methyl-[1,2,4]triazolo[1,5-a]pyridin-6-yl)-4H-pyrrolo[3,2-d]thiazol-2-yl)-3-methylpiperazin-1-yl)-2-methylpropan-2-ol] | 1120 nM |  |
